Test results as given in patent US20030109548A1, “Compositions and methods of treating iron excess” (priority 2001, published 2003).

Experiments:
[1] = isolated from filtrates of 4 to 6 week old culture of P. aeruginosa; cited from earlier work
[2] = Micelle formation upon mixing with FeCl3 (brightfield microscopy); assay type: physicochemical; conditions: 0.2 M in ethanol mixed with 0.2 M FeCl3 in ethanol, 3/1 ratio, reduced to half volume
From the text: Micelle formation. […] Also, synthesized pseudan IX, 0.2 M in ethanol, was mixed with 0.2 M FeCl3 in ethanol in a 3/1 ratio. Following reduction to half the volume using a nitrogen bubbler, micelles were observed as above. An Olympus BX-60 microscope and an Optronics DEI 750 camera were used.

CCCCCCCCCc1cc(O)c2ccccc2n1 [pseudan IX, 4-hydroxy-2-nonylquinoline]
antibiotic activity [1]: shown to exhibit antibiotic activity | micelle formation with iron [2]: Pink micelles, albeit smaller, are also evident
